Data published in patent US8415469B2, “Compounds and methods for kinase modulation, and indications therefor” (Plexxikon Inc., priority 2005, dated 2013).
pIC50: −log10 of the molar value.

Assays:
Format in all cases: biochemical
B-Raf V600E = target: T1, B-Raf V600E (Homo sapiens, UniProt P15056, V600E); assay: AlphaScreen kinase assay, B-Raf V600E; conditions: read-out: IC50, activity toward kinase B-Raf V600E
T1 construct: P4254. pFastBacBD-CDC37 BRAF D437-K722-X, V600E; His6 with pFastBac HT leader (TEV site) (N); made in house; host or cells: Sf9 (baculovirus; chaperone CDC37 co-expressed)

Btk = target: T2, Btk (Homo sapiens, UniProt Q06187); assay: Z'-Lyte FRET kinase assay (Invitrogen), Btk; conditions: read-out: IC50, activity toward kinase Btk
T2 construct: purchased Invitrogen (assay run by Invitrogen)

FGFR1 = target: T3, FGFR1 (Homo sapiens, UniProt P11362, C488A/C584S); assay: AlphaScreen kinase assay, FGFR1; conditions: read-out: IC50, activity toward kinase FGFR
T3 construct: P1351.pET N6 BI-PTP FGFR A458-E765-X C488A, C584S; made in house; host or cells: E. coli (PTP1B co-expressed)

Flt4 = target: T4, Flt4 (Homo sapiens, UniProt P35916); assay: AlphaScreen kinase assay, Flt4; conditions: read-out: IC50, activity toward kinase Flt4
T4 construct: purchased ProQinase GmbH (Freiburg, Germany)
Source text: AlphaScreen assay was used to screen additional kinases. The assay is similarly dependent on the phosphorylation of a peptide substrate. In this assay, an antibody that recognizes phosphorylated substrate is bound to an acceptor bead. The peptide substrate is attached to biotin, which binds to a donor head that contains streptavidin. Thus phosphorylated substrate is bound by antibody and streptavidin, bringing the donor and acceptor heads into close proximity when kinase is not inhibited. The donor produces singlet oxygen which results in emission from the acceptor when they are in close proximity. Conversely, when kinase is inhibited, the donor and acceptor beads are not associated and the emission from the acceptor is reduced.
AlphaScreen assays were done using compounds dissolved in DMSO to a concentration of 20 mM. The compounds were diluted accordingly to the desired final concentrations in each sample well, using 1:3 serial dilution for a total of 8 concentration points.

Kdr = target: T5, Kdr (Homo sapiens, UniProt P35968); assay: Z'-Lyte FRET kinase assay (Invitrogen), Kdr; conditions: read-out: IC50, activity toward kinase Kdr
T5 construct: purchased Invitrogen (assay run by Invitrogen)

Kit = target: T6, Kit (Homo sapiens, UniProt P10721); assay: AlphaScreen kinase assay, Kit; conditions: read-out: IC50, activity toward kinase Kit
T6 construct: P1332.N6 BI PTP KIT M552-K948-X COD; His6 (N); made in house; host or cells: E. coli (PTP1B co-expressed)

Ret = target: T7, Ret (Homo sapiens, UniProt P07949); assay: AlphaScreen kinase assay, Ret; conditions: read-out: IC50, activity toward kinase Ret
T7 construct: P1378.pET-SF BI-PTP RET H661-R1012 HIS; made in house
T7 sequence (P07949 with tags, fused parts or gaps): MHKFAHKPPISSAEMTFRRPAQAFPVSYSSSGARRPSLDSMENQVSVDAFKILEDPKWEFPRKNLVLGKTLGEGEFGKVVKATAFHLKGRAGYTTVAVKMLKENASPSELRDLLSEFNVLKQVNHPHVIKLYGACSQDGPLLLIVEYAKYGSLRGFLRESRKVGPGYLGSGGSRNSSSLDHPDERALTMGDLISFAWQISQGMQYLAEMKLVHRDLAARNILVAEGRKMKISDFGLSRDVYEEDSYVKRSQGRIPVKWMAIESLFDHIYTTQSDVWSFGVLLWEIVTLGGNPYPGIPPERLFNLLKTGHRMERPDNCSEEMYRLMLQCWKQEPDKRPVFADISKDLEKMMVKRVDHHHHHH

Yes = target: T8, Yes (Homo sapiens, UniProt P07947); assay: Z'-Lyte FRET kinase assay (Invitrogen), Yes; conditions: read-out: IC50, activity toward kinase Yes
T8 construct: purchased Invitrogen (Carlsbad, Calif.), screening service
Method in brief: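 Inhibition was inferred from protease cleavage of non-phosphorylated peptide, measured as a coumarin/fluorescein ratio. Kinase reactions used 10 μM ATP for 1 h at room temperature.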

Jnk3 = target: T9, Jnk3 (Homo sapiens, UniProt P53779); assay: AlphaScreen kinase assay, Jnk3; conditions: read-out: IC50, activity toward kinase Jnk3
T9 construct: purchased Upstate Biotechnology

Jnk1 = target: T10, Jnk1 (Homo sapiens, UniProt P45983); assay: AlphaScreen kinase assay, Jnk1; conditions: read-out: IC50, activity toward kinase Jnk1
T10 construct: purchased Upstate Biotechnology

Jnk2 = target: T11, Jnk2 (Homo sapiens, UniProt P45984); assay: AlphaScreen kinase assay, Jnk2; conditions: read-out: IC50, activity toward kinase Jnk2
T11 construct: purchased Roche Protein Expression Group (Indianapolis, IN)
Method in brief: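 Uses phospho-specific antibody on acceptor beads plus streptavidin donor beads capturing biotinylated peptide substrate; singlet oxygen from donor excites nearby acceptor. Inhibitors tested in 8-point, 1:3 titrations starting from 20 mM DMSO solutions.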

Flt1 = target: T12, Flt1 (Homo sapiens, UniProt P17948); assay: AlphaScreen kinase assay, Flt1; conditions: read-out: IC50, activity toward kinase Flt1
T12 construct: P1826.pETN6 BI-PTP FLT1 M799-D1165-X WT; His6 (N); made in house; host or cells: E. coli (PTP1B co-expressed)
T12 sequence (P17948 with tags, fused parts or gaps): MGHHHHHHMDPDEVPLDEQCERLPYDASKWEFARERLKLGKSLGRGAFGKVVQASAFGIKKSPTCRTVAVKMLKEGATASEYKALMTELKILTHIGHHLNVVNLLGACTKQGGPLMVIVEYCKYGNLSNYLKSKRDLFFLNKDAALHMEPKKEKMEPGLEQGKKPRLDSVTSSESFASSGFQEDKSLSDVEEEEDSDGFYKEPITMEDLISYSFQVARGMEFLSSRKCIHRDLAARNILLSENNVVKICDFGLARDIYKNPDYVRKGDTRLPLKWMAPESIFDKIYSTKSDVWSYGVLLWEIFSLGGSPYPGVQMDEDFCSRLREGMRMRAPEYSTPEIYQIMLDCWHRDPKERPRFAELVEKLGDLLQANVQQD

Stk6 = target: T13, Stk6 (Homo sapiens, UniProt O14965); assay: Z'-Lyte FRET kinase assay (Invitrogen), Stk6; conditions: read-out: IC50, activity toward kinase Stk6
T13 construct: purchased Invitrogen (Carlsbad, Calif.), screening service
T13 sequence (O14965 1-403): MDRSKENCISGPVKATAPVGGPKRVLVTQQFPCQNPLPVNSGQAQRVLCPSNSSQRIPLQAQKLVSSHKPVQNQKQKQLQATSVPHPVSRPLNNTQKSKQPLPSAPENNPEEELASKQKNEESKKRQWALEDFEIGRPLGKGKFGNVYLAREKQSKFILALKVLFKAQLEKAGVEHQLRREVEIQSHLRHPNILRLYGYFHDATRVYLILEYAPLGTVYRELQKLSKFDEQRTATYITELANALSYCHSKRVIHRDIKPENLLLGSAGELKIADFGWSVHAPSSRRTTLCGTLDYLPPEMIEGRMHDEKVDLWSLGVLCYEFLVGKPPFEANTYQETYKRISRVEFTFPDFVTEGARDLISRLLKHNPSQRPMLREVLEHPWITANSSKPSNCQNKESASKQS

Fak = target: T14, Fak (Homo sapiens, UniProt Q05397); assay: AlphaScreen kinase assay, Fak; conditions: read-out: IC50, activity toward kinase Fak
T14 construct: P1358.pFastBacHtb FAK S411-Q686-X; His6 with pFastBacHTb leader (TEV site) (N); made in house; host or cells: Sf9 (baculovirus)

Fms = target: T15, Fms (Homo sapiens, UniProt P07333); assay: AlphaScreen kinase assay, Fms; conditions: read-out: IC50, activity toward kinase Fms
T15 construct: purchased Upstate Biotechnology

c-Raf-1 = target: T16, c-Raf-1 (Homo sapiens, UniProt P04049); assay: AlphaScreen kinase assay, c-Raf-1; conditions: read-out: IC50, activity toward kinase c-Raf-1
T16 construct: purchased Upstate Biotechnology

Src = target: T17, Src (Homo sapiens, UniProt P12931); assay: AlphaScreen kinase assay, Src; conditions: read-out: IC50, activity toward kinase Src
T17 construct: P1144. pET-N6 BI-PTP SRC V86-L536-X; made in house

Measured: pIC50

T5 sequence (P35968 20-1356): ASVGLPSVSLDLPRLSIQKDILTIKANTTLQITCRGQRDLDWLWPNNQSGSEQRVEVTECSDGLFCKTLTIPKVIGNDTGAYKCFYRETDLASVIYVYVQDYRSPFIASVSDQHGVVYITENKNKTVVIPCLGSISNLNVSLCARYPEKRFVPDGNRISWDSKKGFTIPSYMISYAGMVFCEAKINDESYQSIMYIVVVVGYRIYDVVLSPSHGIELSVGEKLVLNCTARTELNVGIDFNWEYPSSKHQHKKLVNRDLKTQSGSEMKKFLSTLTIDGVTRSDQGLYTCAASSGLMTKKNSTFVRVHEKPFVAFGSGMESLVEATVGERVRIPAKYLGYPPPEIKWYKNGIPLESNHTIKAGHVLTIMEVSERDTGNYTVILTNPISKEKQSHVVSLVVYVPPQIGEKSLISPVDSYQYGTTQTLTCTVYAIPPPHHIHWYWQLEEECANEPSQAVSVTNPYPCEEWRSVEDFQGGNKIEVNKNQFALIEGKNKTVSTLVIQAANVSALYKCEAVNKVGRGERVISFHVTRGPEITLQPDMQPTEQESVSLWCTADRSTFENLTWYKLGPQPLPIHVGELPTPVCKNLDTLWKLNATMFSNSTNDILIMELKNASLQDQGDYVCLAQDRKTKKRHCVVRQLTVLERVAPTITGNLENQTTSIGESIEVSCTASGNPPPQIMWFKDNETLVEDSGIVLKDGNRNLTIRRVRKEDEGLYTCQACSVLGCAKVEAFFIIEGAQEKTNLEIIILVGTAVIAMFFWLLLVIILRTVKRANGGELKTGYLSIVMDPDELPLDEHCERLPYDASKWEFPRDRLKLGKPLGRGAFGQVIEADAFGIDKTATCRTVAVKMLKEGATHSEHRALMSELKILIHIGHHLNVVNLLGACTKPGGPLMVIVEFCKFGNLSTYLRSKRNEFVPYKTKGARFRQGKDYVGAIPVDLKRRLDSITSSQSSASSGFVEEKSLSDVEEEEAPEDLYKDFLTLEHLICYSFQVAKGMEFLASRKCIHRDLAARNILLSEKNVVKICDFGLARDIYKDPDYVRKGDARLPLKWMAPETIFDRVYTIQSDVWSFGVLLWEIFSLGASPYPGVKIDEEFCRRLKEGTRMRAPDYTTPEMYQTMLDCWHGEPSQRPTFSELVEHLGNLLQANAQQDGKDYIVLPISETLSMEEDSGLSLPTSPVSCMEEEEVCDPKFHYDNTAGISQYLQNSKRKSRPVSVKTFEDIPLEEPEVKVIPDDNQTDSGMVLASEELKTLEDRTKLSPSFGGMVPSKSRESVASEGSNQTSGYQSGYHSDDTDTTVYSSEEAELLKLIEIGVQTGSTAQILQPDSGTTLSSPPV
T6 sequence (P10721 with tags, fused parts or gaps): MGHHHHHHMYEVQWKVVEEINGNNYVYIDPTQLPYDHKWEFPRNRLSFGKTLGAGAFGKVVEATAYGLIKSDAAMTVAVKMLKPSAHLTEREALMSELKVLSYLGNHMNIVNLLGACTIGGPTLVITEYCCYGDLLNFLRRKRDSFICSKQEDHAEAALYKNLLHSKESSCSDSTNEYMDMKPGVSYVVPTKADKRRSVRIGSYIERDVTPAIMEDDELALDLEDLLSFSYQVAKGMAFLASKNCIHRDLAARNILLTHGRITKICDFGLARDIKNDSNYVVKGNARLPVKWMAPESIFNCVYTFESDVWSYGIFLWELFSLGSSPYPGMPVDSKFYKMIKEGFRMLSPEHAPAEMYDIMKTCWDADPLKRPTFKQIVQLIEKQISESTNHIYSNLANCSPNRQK
T3 sequence (P11362 458-765 C488A/C584S): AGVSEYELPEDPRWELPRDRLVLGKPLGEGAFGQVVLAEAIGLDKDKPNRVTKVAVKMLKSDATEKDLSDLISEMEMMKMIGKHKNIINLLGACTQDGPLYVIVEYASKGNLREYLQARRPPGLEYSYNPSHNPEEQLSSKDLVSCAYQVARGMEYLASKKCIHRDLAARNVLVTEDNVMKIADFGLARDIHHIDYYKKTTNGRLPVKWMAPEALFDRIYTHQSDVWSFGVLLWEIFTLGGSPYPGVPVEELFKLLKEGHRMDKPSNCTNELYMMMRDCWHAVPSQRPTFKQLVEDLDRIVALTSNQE
T15 sequence (P07333 20-972): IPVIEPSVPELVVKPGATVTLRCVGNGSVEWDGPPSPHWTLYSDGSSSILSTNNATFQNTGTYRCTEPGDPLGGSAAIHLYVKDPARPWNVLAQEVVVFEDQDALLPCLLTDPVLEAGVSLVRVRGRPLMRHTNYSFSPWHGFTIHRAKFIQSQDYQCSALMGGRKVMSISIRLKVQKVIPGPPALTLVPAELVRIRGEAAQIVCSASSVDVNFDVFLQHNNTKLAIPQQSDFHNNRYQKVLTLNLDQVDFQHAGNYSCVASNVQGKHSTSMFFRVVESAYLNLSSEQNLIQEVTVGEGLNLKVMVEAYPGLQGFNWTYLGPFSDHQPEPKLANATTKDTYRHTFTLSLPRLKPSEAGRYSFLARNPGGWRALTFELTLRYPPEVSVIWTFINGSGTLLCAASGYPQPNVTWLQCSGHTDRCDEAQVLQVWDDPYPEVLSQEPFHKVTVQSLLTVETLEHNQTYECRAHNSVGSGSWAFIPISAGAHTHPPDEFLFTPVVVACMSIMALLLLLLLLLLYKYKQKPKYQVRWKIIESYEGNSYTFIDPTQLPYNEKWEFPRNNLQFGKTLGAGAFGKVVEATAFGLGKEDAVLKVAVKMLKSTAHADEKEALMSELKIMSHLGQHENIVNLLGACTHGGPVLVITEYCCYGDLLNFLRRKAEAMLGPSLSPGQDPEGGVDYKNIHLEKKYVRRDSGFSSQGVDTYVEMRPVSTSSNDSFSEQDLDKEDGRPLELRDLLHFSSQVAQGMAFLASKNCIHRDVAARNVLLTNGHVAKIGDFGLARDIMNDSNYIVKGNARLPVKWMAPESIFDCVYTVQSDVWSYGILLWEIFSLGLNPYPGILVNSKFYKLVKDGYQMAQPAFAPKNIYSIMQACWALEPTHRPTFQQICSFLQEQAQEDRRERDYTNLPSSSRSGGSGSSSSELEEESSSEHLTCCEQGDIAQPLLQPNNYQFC
T1 sequence (P15056 with tags, fused parts or gaps V600E): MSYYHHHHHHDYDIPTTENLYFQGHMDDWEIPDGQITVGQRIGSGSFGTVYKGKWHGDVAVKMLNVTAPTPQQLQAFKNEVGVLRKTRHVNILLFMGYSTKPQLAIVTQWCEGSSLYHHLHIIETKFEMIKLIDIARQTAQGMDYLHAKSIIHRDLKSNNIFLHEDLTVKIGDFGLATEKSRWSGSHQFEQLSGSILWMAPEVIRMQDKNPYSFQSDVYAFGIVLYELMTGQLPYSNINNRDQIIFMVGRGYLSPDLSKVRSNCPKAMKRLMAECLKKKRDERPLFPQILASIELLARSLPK
T9 sequence (P53779 whole entry): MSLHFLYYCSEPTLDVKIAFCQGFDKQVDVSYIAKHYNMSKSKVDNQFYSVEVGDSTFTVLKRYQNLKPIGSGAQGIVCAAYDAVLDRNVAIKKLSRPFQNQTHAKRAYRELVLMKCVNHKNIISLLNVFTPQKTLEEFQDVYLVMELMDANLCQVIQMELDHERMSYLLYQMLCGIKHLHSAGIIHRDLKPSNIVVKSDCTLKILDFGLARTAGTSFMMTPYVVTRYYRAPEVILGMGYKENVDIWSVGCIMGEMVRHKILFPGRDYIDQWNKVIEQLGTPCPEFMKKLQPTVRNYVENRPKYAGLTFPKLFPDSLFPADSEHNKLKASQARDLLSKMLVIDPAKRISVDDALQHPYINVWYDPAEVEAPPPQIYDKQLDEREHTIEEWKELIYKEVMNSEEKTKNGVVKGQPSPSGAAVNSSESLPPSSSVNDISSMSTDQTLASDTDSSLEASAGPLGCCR
T10 sequence (P45983 whole entry): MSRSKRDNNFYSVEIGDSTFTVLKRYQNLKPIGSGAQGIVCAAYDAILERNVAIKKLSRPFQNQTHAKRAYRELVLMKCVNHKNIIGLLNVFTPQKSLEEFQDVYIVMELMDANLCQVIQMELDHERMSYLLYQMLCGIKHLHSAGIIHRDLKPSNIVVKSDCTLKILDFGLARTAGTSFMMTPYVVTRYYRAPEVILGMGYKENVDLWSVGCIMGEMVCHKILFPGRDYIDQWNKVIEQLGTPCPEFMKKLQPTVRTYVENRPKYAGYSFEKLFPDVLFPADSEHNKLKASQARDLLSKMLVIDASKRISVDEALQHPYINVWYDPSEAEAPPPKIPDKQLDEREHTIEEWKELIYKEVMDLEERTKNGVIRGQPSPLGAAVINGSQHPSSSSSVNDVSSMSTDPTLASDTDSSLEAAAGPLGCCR
T14 sequence (Q05397 411-686): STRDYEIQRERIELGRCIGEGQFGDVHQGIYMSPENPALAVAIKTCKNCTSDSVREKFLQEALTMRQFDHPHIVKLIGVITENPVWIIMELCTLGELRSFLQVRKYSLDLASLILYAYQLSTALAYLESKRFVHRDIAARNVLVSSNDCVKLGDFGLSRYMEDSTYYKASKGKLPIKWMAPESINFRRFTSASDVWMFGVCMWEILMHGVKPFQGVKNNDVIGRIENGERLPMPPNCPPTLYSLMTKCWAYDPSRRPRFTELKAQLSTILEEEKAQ
T17 sequence (P12931 with tags, fused parts or gaps): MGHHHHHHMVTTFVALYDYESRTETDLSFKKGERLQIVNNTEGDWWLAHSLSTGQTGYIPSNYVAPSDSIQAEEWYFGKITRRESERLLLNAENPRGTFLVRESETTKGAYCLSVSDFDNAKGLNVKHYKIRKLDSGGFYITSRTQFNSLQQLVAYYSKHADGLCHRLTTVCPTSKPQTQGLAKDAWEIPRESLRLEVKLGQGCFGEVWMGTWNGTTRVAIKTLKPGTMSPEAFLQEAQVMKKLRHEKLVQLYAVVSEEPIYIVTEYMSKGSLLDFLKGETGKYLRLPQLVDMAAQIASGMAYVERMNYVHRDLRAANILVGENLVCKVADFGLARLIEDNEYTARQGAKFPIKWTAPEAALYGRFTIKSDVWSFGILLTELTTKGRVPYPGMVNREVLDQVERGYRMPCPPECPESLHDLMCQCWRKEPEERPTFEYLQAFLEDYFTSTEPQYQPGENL

O=C(c1ccccc1F)c1c[nH]c2nccc(-c3cc(F)cc(F)c3)c12 [Compound P-0097]
≥ 5.00: B-Raf V600E | Btk | FGFR1 | Flt4 | Kdr | Kit | Ret | Yes

COc1cccc(C(=O)c2c[nH]c3ncc(-c4cccc(C(N)=O)c4)cc23)c1 [Compound P-0190]
≥ 5.00: Flt4 | Jnk3 | Kdr | Kit | Ret

COc1cccc(C(=O)c2c[nH]c3ncc(-c4cccs4)cc23)c1 [Compound P-0204]
≥ 5.00: FGFR1 | Flt4 | Jnk1 | Jnk2 | Jnk3 | Kdr | Kit | Ret

COc1cccc(C(=O)c2c[nH]c3ncc(-c4cccs4)cc23)c1F [Compound P-0206]
≥ 5.00: FGFR1 | Flt1 | Flt4 | Kdr | Kit | Ret | Stk6

COc1cccc(C(=O)c2c[nH]c3ncc(-c4ccsc4)cc23)c1 [Compound P-0211]
≥ 5.00: B-Raf V600E | Fak | FGFR1 | Flt1 | Flt4 | Fms | Jnk3 | Kit | Ret

O=C(c1ccc(Cl)cc1)c1c[nH]c2ncc(-c3cccnc3)cc12 [Compound P-0418]
≥ 5.00: B-Raf V600E | Btk | c-Raf-1 | FGFR1 | Flt4 | Fms | Kdr | Kit | Ret

CC(=O)Nc1cccc(-c2cnc3[nH]cc(C(=O)c4cc(C)on4)c3c2)c1 [Compound P-0632]
≥ 5.00: FGFR1 | Flt1 | Flt4 | Jnk3 | Kdr | Kit | Ret

CC(=O)Nc1cccc(-c2cnc3[nH]cc(C(=O)c4ccccc4F)c3c2)c1 [Compound P-0668]
not listed: Btk | Yes | Jnk2 | Stk6 | Fms | c-Raf-1
≥ 5.00: all other assays above

Nc1cccc(-c2cnc3[nH]cc(C(=O)c4cccc(Cl)c4Cl)c3c2)c1 [Compound P-0679]
≥ 5.00: B-Raf V600E | FGFR1 | Flt1 | Flt4 | Kdr | Kit | Ret

Cc1cc(C(=O)c2c[nH]c3ncc(-c4cccc(C(N)=O)c4)cc23)nn1C [Compound P-0737]
≥ 5.00: FGFR1 | Flt1 | Flt4 | Kdr | Kit | Ret

COc1ccc(C(=O)c2c[nH]c3ncc(-c4cccs4)cc23)cc1 [Compound P-0771]
≥ 5.00: B-Raf V600E | FGFR1 | Flt1 | Flt4 | Fms | Kdr | Kit | Ret | Src
